Structures are written as SMILES.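 Tested at 5 concentrations; 48 h exposure; 96-well plates; endpoints linearly interpolated, else capped at highest concentration. Definition used: TGI = concentration required for complete inhibition of growth.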 Where only a bound is given, the exact number is not on record here.

Among the test systems are NCI/ADR-RES ovarian; HCC-2998 colon; OVCAR-8 ovarian; DU-145 prostate; MCF7 breast; SK-OV-3 ovarian; MALME-3M melanoma; SK-MEL-5 melanoma; SK-MEL-28 melanoma; HS 578T breast; COLO 205 colon.
Experiment in all cases: NCI-60 cell line screen, 48 h

Consider `Clc1cc(Cl)cc(C2ON=C(c3ccccc3)N2C23CC4CC(CC(C4)C2)C3)c1` (configuration not stated), for which the TGI with NCI/ADR-RES ovarian, in the experiment on HCC-2998 colon, with OVCAR-8 ovarian, with DU-145 prostate, in the experiment on MCF7 breast and with SK-OV-3 ovarian was > 10 µM in each case. For the same compound, the TGI in the experiment on MALME-3M melanoma, in the experiment on SK-MEL-5 melanoma, with SK-MEL-28 melanoma, in the experiment with HS 578T breast and in the experiment with COLO 205 colon was > 10 µM each time.

Regarding `CCN1C(=O)C(C)S/C1=N\NC(=O)CSc1nc2ccccc2c(=O)n1CC` (configuration not stated), the TGI in the experiment with NCI/ADR-RES ovarian, in the experiment with HCC-2998 colon, in the experiment on OVCAR-8 ovarian, in the experiment with DU-145 prostate, in the experiment with MCF7 breast and in the experiment with SK-OV-3 ovarian was > 100 µM each time. Further, the TGI in the experiment with MALME-3M melanoma, with SK-MEL-5 melanoma, in the experiment with SK-MEL-28 melanoma, with HS 578T breast and in the experiment on COLO 205 colon was > 100 µM in each case.

In the case of `CC(=O)O[C@H]1/C(=C/c2ccncc2)C[C@H]2[C@@H]3CC=C4C[C@@H](N5CCCC5)CC[C@]4(C)[C@H]3CC[C@]12C`, the TGI with NCI/ADR-RES ovarian is 25.1 µM; in the experiment on HCC-2998 colon it was 26 µM; in the experiment with OVCAR-8 ovarian, 28.2 µM; in the experiment with DU-145 prostate, 28 µM; with MCF7 breast, 25.8 µM; with SK-OV-3 ovarian, 37 µM. Moreover, the TGI with MALME-3M melanoma was 28 µM; in the experiment on SK-MEL-5 melanoma, 21.1 µM; in the experiment on SK-MEL-28 melanoma, 26 µM; in the experiment on HS 578T breast, 33.7 µM; with COLO 205 colon it was 25.5 µM.

Consider `Cc1ccc(N=Nc2ccc(O)c(CN(C)C)c2)cc1`, for which the TGI came to 53.7 µM in the experiment with NCI/ADR-RES ovarian; 29.5 µM in the experiment with HCC-2998 colon; 42.3 µM in the experiment on OVCAR-8 ovarian; 47.3 µM in the experiment with DU-145 prostate; 73.9 µM in the experiment with MCF7 breast; 85.3 µM with SK-OV-3 ovarian. Further, the TGI was determined as 31.2 µM with MALME-3M melanoma; 28 µM in the experiment with SK-MEL-5 melanoma; 41.1 µM with SK-MEL-28 melanoma; 41.9 µM in the experiment with HS 578T breast; 35.2 µM in the experiment on COLO 205 colon.

With `CCOc1ccc(N/C(Cl)=C(Cl)\C(=C(\Nc2ccc(OCC)cc2)n2nnc3ccccc32)[N+](=O)[O-])cc1`, the TGI in the experiment on NCI/ADR-RES ovarian was > 100 µM; in the experiment with HCC-2998 colon, 46.6 µM; in the experiment on OVCAR-8 ovarian, 3.46 µM; in the experiment with DU-145 prostate, 46.8 µM; in the experiment on MCF7 breast it was 24.6 µM; in the experiment on SK-OV-3 ovarian, > 100 µM. Also, the TGI was 5.49 µM with MALME-3M melanoma; 24.5 µM in the experiment on SK-MEL-5 melanoma; 20.9 µM in the experiment with SK-MEL-28 melanoma; > 100 µM in the experiment with HS 578T breast; 25.4 µM in the experiment on COLO 205 colon.

For `CC1CC[C@@]2(OC1)OC1CC3C4CCC5C[C@@H](OC6OC(CO)C(OC7OC(CO)C(O)C(OC8OC(CO)C(O)C(OC9OC(CO)C(O)C(O)C9O)C8O)C7OC7OC(CO)C(O)C(O)C7O)C(O)C6O)[C@H](O)C[C@]5(C)C4CC[C@]3(C)C1[C@@H]2C` (some centres not stated), the TGI in the experiment with NCI/ADR-RES ovarian, with HCC-2998 colon, in the experiment with OVCAR-8 ovarian, in the experiment on DU-145 prostate, with MCF7 breast and with SK-OV-3 ovarian was > 80.5 µM each time. The TGI in the experiment with MALME-3M melanoma, with SK-MEL-5 melanoma, in the experiment with SK-MEL-28 melanoma, in the experiment on HS 578T breast and in the experiment on COLO 205 colon was > 80.5 µM in each case.

Turning to `CCc1n[nH]c(=O)n1/N=C/c1ccc(C)cc1`, the TGI in the experiment on NCI/ADR-RES ovarian, with HCC-2998 colon, with OVCAR-8 ovarian, with DU-145 prostate, with MCF7 breast and with SK-OV-3 ovarian was > 100 µM each time. Moreover, the TGI in the experiment with MALME-3M melanoma is > 100 µM; in the experiment on SK-MEL-5 melanoma, > 100 µM; with SK-MEL-28 melanoma it was > 100 µM; with HS 578T breast, 44.3 µM; in the experiment on COLO 205 colon, > 100 µM.

On to `COc1ccc(/C(O)=C/c2nc3cccnc3nc2/C=C(\O)c2ccc(OC)cc2)cc1`, for which the TGI was 53 µM in the experiment with NCI/ADR-RES ovarian; > 100 µM in the experiment with HCC-2998 colon; 35.6 µM in the experiment with OVCAR-8 ovarian; > 100 µM with DU-145 prostate; 50.1 µM with MCF7 breast; 31.7 µM in the experiment on SK-OV-3 ovarian. The TGI with MALME-3M melanoma was 52.2 µM; in the experiment with SK-MEL-5 melanoma it was 78.3 µM; in the experiment on SK-MEL-28 melanoma it was 69 µM; in the experiment on HS 578T breast, 43.7 µM; in the experiment on COLO 205 colon, > 100 µM.

In the case of `Cc1cc(S(=O)(=O)Nc2cc(N)[nH]n2)c(SCc2nc(N)nc(N(C)C)n2)cc1Cl`, the TGI in the experiment with NCI/ADR-RES ovarian, in the experiment on HCC-2998 colon, with OVCAR-8 ovarian, in the experiment with DU-145 prostate, with MCF7 breast and in the experiment with SK-OV-3 ovarian was > 10 µM throughout. Besides, the TGI in the experiment with MALME-3M melanoma, with SK-MEL-5 melanoma, in the experiment on SK-MEL-28 melanoma, in the experiment with HS 578T breast and in the experiment on COLO 205 colon was > 10 µM each time.

For `O=c1ccn(C2OC(CO)C(O)C2[Se]c2ccccc2)c(=O)[nH]1` (configuration not stated), the TGI in the experiment on NCI/ADR-RES ovarian, with HCC-2998 colon, with OVCAR-8 ovarian, in the experiment with DU-145 prostate, in the experiment with MCF7 breast and in the experiment on SK-OV-3 ovarian was > 100 µM in each case. Further, the TGI in the experiment with MALME-3M melanoma, in the experiment on SK-MEL-5 melanoma, with SK-MEL-28 melanoma, with HS 578T breast and in the experiment on COLO 205 colon was > 100 µM throughout.

In the case of `CN(C)CCN=C1Nc2ccccc2C(=S)N2CSCC12` (configuration not stated), the TGI in the experiment on NCI/ADR-RES ovarian, with HCC-2998 colon, with OVCAR-8 ovarian, with DU-145 prostate, in the experiment on MCF7 breast and in the experiment on SK-OV-3 ovarian was > 100 µM in each case. Moreover, the TGI with MALME-3M melanoma, with SK-MEL-5 melanoma, in the experiment on SK-MEL-28 melanoma, in the experiment with HS 578T breast and in the experiment on COLO 205 colon was > 100 µM in each case.

`Cc1oc2c(Cl)cc(O)c(Cl)c2c2cccc1-2`: the TGI is 79.9 µM with NCI/ADR-RES ovarian; > 100 µM in the experiment on HCC-2998 colon; 82.6 µM with OVCAR-8 ovarian; 27.5 µM in the experiment on DU-145 prostate; > 100 µM in the experiment with MCF7 breast; > 100 µM in the experiment on SK-OV-3 ovarian. Further, the TGI with MALME-3M melanoma was 53.1 µM; with SK-MEL-5 melanoma, 52.1 µM; in the experiment on SK-MEL-28 melanoma, 57.5 µM; in the experiment on HS 578T breast, > 100 µM; with COLO 205 colon, > 100 µM.
